Reference: patent US8901305B2, “Aryl lactam kinase inhibitors” (Bristol-Myers Squibb Company, priority 2012, dated 2014)

target: T1, AAK1 (full length human) with AP2M1 in HEK293F cells (Homo sapiens, UniProt Q2M2I8); assay: HEK281 cell-based assay (phospho-mu2 Western blot in transfected HEK293F cells); conditions: 3 hours, inhibition of mu2 phosphorylation
T1 construct: expressed in transfected cells; host or cells: HEK293F
Protocol: HEK293F cells were cultured in media containing DMEM (Gibco, cat. #11965), 10% FBS (SAFC Biosciences, cat. #12103C), 1×GPS (glutamine, penicillin and streptomycin). On day one, cells were plated on a 10 cm dish so that they are ˜80% confluent at time of transfection. Roughly 12 million cells were in a 10 cm dish at time of transfection. On day two, each dish was transfected with 48 ug DNA and 144 ul Lipofectamine 2000 (Invitrogen, cat. #11668-019). The DNA was comprised of a mixture (per 10 cm dish) containing 3 ug AAK1/HA/pIRES (full length human, NCBI accession no. NP_055726.2), 45 μg Flag/AP2MI/pcDNA (full length human), and 1.5 ml OPTI-MEM. The Lipofectamine 2000 is made up of a mixture (per 10 cm dish) containing 144 μl Lipofectamine 2000 and 1.5 ml OPTI-MEM. Each mixture was transferred to individual 15 ml tubes and incubated at RT for 5 minutes, and then the two mixes were combined and incubated at RT for 20 minutes. Growth media was then aspirated from each 10 cm plate and replaced with 10 ml of DMEM+10% FBS (no GPS). Finally, 3 ml DNA/Lipofectamine mix was added to each 10 cm dish and mix gently followed by incubate of plate overnight at 37° C. and 5% CO2.
On day three, compounds were diluted in 100% DMSO at 1000× final concentration, followed by 3-fold serial dilutions for a total of 5 concentrations tested. Four compounds were tested per 10 cm dish. One ul of each compound dilution was then pipetted into a deep-well, 96-well plate, followed by addition of 500 μl DMEM+0.5% FBS into each well for a 2× final concentration of each compound. Cells were resuspended in a 10 cm dish by simple pipetting (HEK293 cells come off the plate that easy at this point) and then transferred to a 50 ml conical tube and pelleted by centrifugation at 1000 rpm for 5 min. Cell pellets were then resuspended in 2.75 ml DMEM+0.5% FBS per 10 cm dish and 100 μl of cell suspension transferred into each well of 96-well TC plate. Finally, 100 μl of 2× compound diluted in DMEM+0.5% FBS was then added into wells containing cell suspension for a 1× final concentration. Plates were then incubated at 37° C. and 5% CO2 for 3 hours followed by transferring of cell suspensions from each well into 12-tube PCR strips. The PCR strips were spun in a tip rack at 1000 rpm for 5 minutes to pellet cells and media was then removed by pipetting without disturbing the cell pellet.
To prepare for Western Blot analysis, cell pellets were resuspend in 40 ul 1×LDS-PAGE sample buffer (Invitrogen, cat. # NP0008)+2× Halt phosphatase and protease inhibitor cocktail (Thermo Scientific, cat. #1861284), followed by sonicating each with microtip sonicator set at 5 for 8-10 seconds. Five ul of 10× NuPage Sample Reducing Agent (with […]) was to each sample followed by heat denaturing at 70 C for 10 min on PCR machine. A total of 10 μl per sample was loaded into each lane of a 4-20% Tris-Glycine Criterion 26-well gel (Biorad, cat. #345-0034) for the phospho-mu2 blot and 10 μl per lane in a 4-12% Bis-Tris (+MES buffer) NuPAGE 26-well gel (Invitrogen, cat. # WG1403BX10) for the mu2 blot. For controls, 2 ng of phospho-mu2 or 20 ng mu2/Flag proteins were loaded in the last well of each gel. After SDS-PAGE, samples on each gel were transferred to PVDF membrane using an iBlot and membranes were blocked for one hour in TBST+5% milk, followed by wash 3× for 5-10 min with TBST. Criterion gels were probed with rabbit anti-phospho-mu2 (1:5000; a rabbit polyclonal antibody produced by New England Peptide and affinity purified at Lexicon) in TBST+5% BSA, whereas, NuPAGE gels were probed with mouse anti-Flag (1:500; Sigma, cat. # F1804) in TBST+5% milk, and these primary antibodies were incubated overnight at 4° C. on a rocker. […]

T1 sequence (Q2M2I8 whole entry): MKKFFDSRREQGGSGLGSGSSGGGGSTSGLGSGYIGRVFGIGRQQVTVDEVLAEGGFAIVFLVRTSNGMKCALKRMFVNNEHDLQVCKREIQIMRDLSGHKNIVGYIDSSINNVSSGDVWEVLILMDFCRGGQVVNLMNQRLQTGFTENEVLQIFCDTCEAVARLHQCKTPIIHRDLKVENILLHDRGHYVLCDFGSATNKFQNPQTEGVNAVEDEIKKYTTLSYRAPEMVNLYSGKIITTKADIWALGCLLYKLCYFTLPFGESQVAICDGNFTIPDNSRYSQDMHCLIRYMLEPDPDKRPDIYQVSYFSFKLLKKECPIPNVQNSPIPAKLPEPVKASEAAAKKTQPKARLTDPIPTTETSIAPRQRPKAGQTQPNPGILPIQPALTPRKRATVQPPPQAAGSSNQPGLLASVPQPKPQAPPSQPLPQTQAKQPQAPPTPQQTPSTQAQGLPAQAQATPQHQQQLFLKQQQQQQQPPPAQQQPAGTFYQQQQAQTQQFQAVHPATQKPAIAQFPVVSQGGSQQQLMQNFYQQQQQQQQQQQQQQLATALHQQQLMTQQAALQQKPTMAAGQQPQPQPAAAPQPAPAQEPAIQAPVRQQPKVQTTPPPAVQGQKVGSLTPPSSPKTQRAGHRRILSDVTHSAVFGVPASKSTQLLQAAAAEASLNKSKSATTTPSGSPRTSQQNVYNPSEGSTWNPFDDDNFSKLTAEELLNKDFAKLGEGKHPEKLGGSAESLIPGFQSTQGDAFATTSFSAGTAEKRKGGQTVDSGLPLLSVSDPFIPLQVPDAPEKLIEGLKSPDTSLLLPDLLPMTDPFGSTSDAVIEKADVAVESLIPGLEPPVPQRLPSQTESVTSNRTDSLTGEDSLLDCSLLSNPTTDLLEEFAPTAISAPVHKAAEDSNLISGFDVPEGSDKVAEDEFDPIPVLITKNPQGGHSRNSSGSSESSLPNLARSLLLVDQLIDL

In order of falling IC50:
1. CC(C)C[C@H](N)COc1c(Cl)cc2c3ccncc3c(=O)n(C)c2c1Cl [Example 10, (S)-8-((2-amino-4-methylpentyl)oxy)-7,9-dichloro-6-methylbenzo[c][2,7]naphthyridin-5(6H)-one]  29 nM
2. Cc1nccc2c1c(=O)n(C)c1cc(OC(C)[C@@H](N)CC(C)C)ccc21 (mixture of isomers) [Example 33, 8-(((2S,3S)-3-amino-5-methylhexan-2-yl)oxy)-4,6 dimethylbenzo[c][2,7]naphthyridin-5(6H)-one]  11 nM
3. CC(C)C[C@H](N)COc1cc2c(cc1Cl)c1ccncc1c(=O)n2C [Example 43, (S)-8-((2-amino-4-methylpentyl)oxy)-9-chloro-6-methylbenzo[c][2,7]naphthyridin-5(6H)-one]  5 nM
4. CC(C)C[C@H](N)COc1cc2c(cc1C#N)c1ccncc1c(=O)n2C [Example 5, (S)-8-((2-amino-4-methylpentyl)oxy)-6-methyl-5-oxo-5,6 dihydrobenzo[c][2,7]naphthyridine-9-carbonitrile]  2.5 nM
5. Cc1cc2c3ccncc3c(=O)n(C)c2cc1OC[C@@H](N)CC(C)C [Example 4, (S)-8-((2-amino-4-methylpentyl)oxy)-6,9-dimethylbenzo[c][2,7]naphthyridin-5(6H)-one]  2.4 nM
6. Cc1nccc2c1c(=O)[nH]c1cc(OC[C@@H](N)CC(C)C)c(Br)cc12 [Example 49, (S)-8-(2-amino-4-methylpentyloxy)-9-bromo-4-methylbenzo[c][2,7]naphthyridin-5(6H)-one]  0.6 nM
7. Cc1nccc2c1c(=O)n(C)c1cc(OC[C@@H](N)CC(C)C)c(C(F)F)cc21 [Example 27, (S)-8-((2-amino-4-methylpentyl)oxy)-9-(difluoromethyl)-4,6-dimethylbenzo[c][2,7]naphthyridin-5(6H)-one]  0.3 nM

same assay, conditions: given as IC50 range, 3 hours, inhibition of mu2 phosphorylation

`Cc1nccc2c1c(=O)n(C)c1cc(OC[C@](C)(N)CC(C)C)ccc21` (single isomer, unassigned) [Example 37] and `CC(C)CC(C)(N)COc1ccc2c3ccncc3c(=O)n(C)c2c1` (single isomer, unassigned) [Example 58, 8-((2-amino-2,4-dimethylpentyl)oxy)-6-methylbenzo[c][2,7]naphthyridin-5(6H)-one] fall in the same range of IC50: 10 to 100 nM for the first, 10 to 100 nM for the second.

`CC(C)CC(C)(N)COc1ccc2c3ccncc3c(=O)n(C)c2c1` (single isomer, unassigned) [Example 59, 8-((2-amino-2,4-dimethylpentyl)oxy)-6-methylbenzo[c][2,7]naphthyridin-5(6H)-one] and `Cc1nccc2c1c(=O)n(C)c1cc(OC[C@@H](N)CC(C)C(F)(F)F)ccc21` (single isomer, unassigned) [Example 88] fall in the same range of IC50: 10 to 100 nM for the first, 10 to 100 nM for the second.

In the case of `CN[C@H](COc1cc2c(cc1C#N)c1ccnc(C)c1c(=O)n2C)CC(C)C` [Example 65, (S)-4,6-dimethyl-8-(4-methyl-2-(methylamino)pentyloxy)-5-oxo-5,6-dihydrobenzo[c][2,7]naphthyridine-9-carbonitrile], the IC50 is reported as 1 to 10 nM.

target: T2, GST-Xa-hAAK1 (Homo sapiens, UniProt Q2M2I8); assay: AAK1 kinase assay; format: biochemical; conditions: ATP 22 μM, 3 hours at room temperature
T2 construct: made in house
T2 sequence (Q2M2I8 whole entry): as above
Protocol: The assays were performed in U-bottom 384-well plates. […] The reactions were initiated by the combination of bacterially expressed, GST-Xa-hAAK1 with substrates and test compounds. The reactions were incubated at room temperature for 3 hours and terminated by adding 60 μl of 35 mM EDTA buffer to each sample. The reactions were analyzed on the Caliper LabChip 3000 (Caliper, Hopkinton, Mass.) by electrophoretic separation of the fluorescent substrate and phosphorylated product. […] Compounds were dissolved at 10 mM in dimethylsulfoxide (DMSO) and evaluated at eleven concentrations. IC50 values were derived by non-linear regression analysis.

In order of falling IC50:
1. Cc1nccc2c1c(=O)[nH]c1c(F)c(OC[C@@H](N)CC(C)C)ccc12 [Example 82, (S)-8-(2-amino-4-methylpentyloxy)-7-fluoro-4-methylbenzo[c][2,7]naphthyridin-5(6H)-one]  150 nM
2. COCCn1c(=O)c2c(C)nccc2c2ccc(OC[C@@H](N)CC(C)C)cc21 [Example 80, (S)-8-((2-amino-4-methylpentyl)oxy)-6-(2-methoxyethyl)-4-methylbenzo[c][2,7]naphthyridin-5(6H)-one]  134 nM
3. CC(C)CC(C)(N)COc1ccc2c3ccncc3c(=O)n(C)c2c1 (single isomer, unassigned) [Example 58, 8-((2-amino-2,4-dimethylpentyl)oxy)-6-methylbenzo[c][2,7]naphthyridin-5(6H)-one]  11 nM
4. Cc1nccc2c1c(=O)n(C)c1cc(OC[C@](C)(N)CC(C)C)ccc21 (single isomer, unassigned) [Example 37]  3.9 nM

same assay, conditions: given as IC50 range; ATP 22 μM, 3 hours at room temperature

`Cc1nccc2c1c(=O)n(C)c1cc(OC(C)[C@@H](N)CC(C)C)ccc21` (mixture of isomers) [Example 33, 8-(((2S,3S)-3-amino-5-methylhexan-2-yl)oxy)-4,6 dimethylbenzo[c][2,7]naphthyridin-5(6H)-one] and `CN[C@H](COc1ccc2c3ccnc(C)c3c(=O)n(C)c2c1)CC(C)C` [Example 95, (S)-4,6-dimethyl-8-(4-methyl-2-(methylamino)pentyloxy)benzo[c][2,7]naphthyridin-5(6H)-one] fall in the same range of IC50: 10 to 100 nM for the first, 10 to 100 nM for the second.

Compared with `CC(C)CC(C)(N)COc1ccc2c3ccncc3c(=O)n(C)c2c1` (single isomer, unassigned) [Example 59, 8-((2-amino-2,4-dimethylpentyl)oxy)-6-methylbenzo[c][2,7]naphthyridin-5(6H)-one], `COC[C@H](N)COc1ccc2c3ccncc3c(=O)n(C)c2c1` [Example 69, (S)-8-(2-amino-3-methoxypropoxy)-6-methylbenzo[c][2,7]naphthyridin-5(6H)-one] is higher in IC50: 1 to 10 nM for the first, 10 to 100 nM for the second.

First: Cc1nccc2c1c(=O)n(C)c1cc(OC[C@@H](N)CC(C)C(F)(F)F)ccc21 (single isomer, unassigned) [Example 88]
Second: Cn1c(=O)c2cnccc2c2ccc(OCC(N)CC(F)(F)F)cc21 (stereo not shown) [Example 93, 8-(2-amino-4,4,4-trifluorobutoxy)-6-methylbenzo[c][2,7]naphthyridin-5(6H)-one]
The IC50 of the first is lower: 1 to 10 nM for the first, 10 to 100 nM for the second.

`Cc1nccc2c1c(=O)n(C)c1cc(OC[C@@H](N)CC(C)C)c(CO)cc21` [Example 71, (S)-8-(2-amino-4-methylpentyloxy)-9-(hydroxymethyl)-4,6-dimethylbenzo[c][2,7]naphthyridin-5(6H)-one] and `COc1cc2c3ccnc(C)c3c(=O)n(C)c2cc1OC[C@@H](N)CC(C)C` [Example 89, (S)-8-((2-amino-4-methylpentyl)oxy)-9-methoxy-4,6-dimethylbenzo[c][2,7]naphthyridin-5(6H)-one] fall in the same range of IC50: 1 to 10 nM for the first, 1 to 10 nM for the second.

Compared with `Cc1nccc2c1c(=O)n(C)c1cc(OC[C@@H](N)CC(C)C)c(-n3cccn3)cc21` [Example 74], `Cc1nccc2c1c(=O)n(C)c1cc(OC[C@@H](N)CC(C)C)c(S(C)(=O)=O)cc21` [Example 76, (S)-8-(2-amino-4-methylpentyloxy)-4,6-dimethyl-9-(methylsulfonyl)benzo[c][2,7]naphthyridin-5(6H)-one] is higher in IC50: 1 to 10 nM for the first, 100 to 2000 nM for the second. The first is the more potent here.

First: Cc1nccc2c1c(=O)n(C)c1cc(OC[C@@H](N)CC(C)C)c(OC(F)F)cc21 [Example 90, (S)-8-((2-amino-4-methylpentyl)oxy)-9-(difluoromethoxy)-4,6-dimethylbenzo[c][2,7]naphthyridin-5(6H)-one]
Second: Cc1nccc2c1c(=O)n(C)c1cc(OC[C@@H](N)CC(C)C)c(C(=O)N(C)C)cc21 [Example 96, (S)-8-((2-amino-4-methylpentyl)oxy)-N,N,4,6-tetramethyl-5-oxo-5,6-dihydrobenzo[c][2,7]naphthyridine-9-carboxamide]
The IC50 of the first is lower: 10 to 100 nM for the first, 100 to 2000 nM for the second.

First: Cc1nccc2c1c(=O)[nH]c1c(F)c(OC[C@@H](N)CC(C)C)c(Br)cc12 [Example 100, (S)-8-(2-amino-4-methylpentyloxy)-9-bromo-7-fluoro-4-methylbenzo[c][2,7]naphthyridin-5(6H)-one]
Second: Cc1nccc2c1c(=O)[nH]c1c(F)c(OCC(C)(N)CC(C)C)ccc12 (stereo not shown) [Example 105, 8-(2-amino-2,4-dimethylpentyloxy)-7-fluoro-4-methylbenzo[c][2,7]naphthyridin-5(6H)-one]
The IC50 of the first is lower: 1 to 10 nM for the first, 10 to 100 nM for the second.

`Cc1nccc2c1c(=O)[nH]c1cc(OCC(C)(N)CC(C)C)c(F)cc12` (stereo not shown) [Example 102, 8-(2-amino-2,4-dimethylpentyloxy)-9-fluoro-4-methylbenzo[c][2,7]naphthyridin-5(6H)-one] showed an IC50 of 1 to 10 nM.
